Test results from ChEMBL document CHEMBL1671721, “Chemical validation of phosphodiesterase C as a chemotherapeutic target in Trypanosoma cruzi, the etiological agent of Chagas' disease” (Antimicrob Agents Chemother, 2010).
Activity calls are given as the source filed them. The calls are words filed in the database; no cut-off is given here.

Assays:
Trypanosoma cruzi = experiment: Antimicrobial activity against Trypanosoma cruzi Y infected in rat L6E9 myoblasts assessed as inhibition of [5,6-3H]uracil incorporation after 3 days postinfection by scintillation counter; assay type: functional, organism-based
[1] = Cytotoxicity against rat L6E9 myoblasts at 1 to 25 uM
[2] = target: T1, Cyclic nucleotide specific phosphodiesterase (Trypanosoma cruzi, UniProt Q53I59); experiment: Inhibition of Trypanosoma cruzi Y PDEC after 30 mins
T1 sequence (Q53I59 whole entry): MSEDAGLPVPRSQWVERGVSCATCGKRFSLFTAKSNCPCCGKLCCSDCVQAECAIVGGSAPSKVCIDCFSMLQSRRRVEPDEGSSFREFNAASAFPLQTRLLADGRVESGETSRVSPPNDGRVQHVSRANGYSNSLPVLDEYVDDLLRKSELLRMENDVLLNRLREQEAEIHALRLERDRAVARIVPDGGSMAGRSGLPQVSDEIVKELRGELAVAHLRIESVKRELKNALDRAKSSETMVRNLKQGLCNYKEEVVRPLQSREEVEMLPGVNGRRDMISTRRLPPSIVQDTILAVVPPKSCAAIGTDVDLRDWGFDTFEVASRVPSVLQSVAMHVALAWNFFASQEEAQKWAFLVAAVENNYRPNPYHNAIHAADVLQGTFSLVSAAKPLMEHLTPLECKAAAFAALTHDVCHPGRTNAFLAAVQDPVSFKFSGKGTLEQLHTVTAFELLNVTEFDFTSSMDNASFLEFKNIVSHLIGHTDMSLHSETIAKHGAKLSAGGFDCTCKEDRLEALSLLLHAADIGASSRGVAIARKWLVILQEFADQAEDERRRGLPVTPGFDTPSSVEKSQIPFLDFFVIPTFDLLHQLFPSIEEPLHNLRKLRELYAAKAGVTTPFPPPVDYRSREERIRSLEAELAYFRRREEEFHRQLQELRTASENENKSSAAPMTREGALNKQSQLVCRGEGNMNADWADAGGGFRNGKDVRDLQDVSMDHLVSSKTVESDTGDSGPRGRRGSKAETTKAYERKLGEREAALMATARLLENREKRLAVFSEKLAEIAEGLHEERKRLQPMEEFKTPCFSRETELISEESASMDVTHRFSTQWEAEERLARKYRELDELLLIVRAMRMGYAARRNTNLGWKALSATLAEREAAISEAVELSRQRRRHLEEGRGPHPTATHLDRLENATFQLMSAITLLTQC

Phosphodiesterase 4 = Phosphodiesterase 4 (Homo sapiens, UniProt P27815+Q08499+Q07343+Q08493); experiment: Inhibition of human PDE4 after 30 mins; assay type: protein assay
[3] = Cytotoxicity against rat L6E9 myoblasts upto 1 uM
[4] = target: T2, Cyclic nucleotide specific phosphodiesterase (Trypanosoma cruzi) (UniProt Q53I59); experiment: Inhibition of Trypanosoma cruzi Y PDEC assessed as cAMP accumulation at 90 uM after 1 to 5 mins by luminescence spectrophotometry
T2 sequence (whole entry): T1 sequence (Q53I59 whole entry)

[5] = target: T2, Cyclic nucleotide specific phosphodiesterase (Trypanosoma cruzi); experiment: Inhibition of Trypanosoma cruzi Y PDEC assessed as cAMP accumulation at 26 uM after 1 to 5 mins by luminescence spectrophotometry
[6] = target: T2, Cyclic nucleotide specific phosphodiesterase (Trypanosoma cruzi); experiment: Inhibition of Trypanosoma cruzi Y PDEC assessed as cAMP accumulation at 43 uM after 1 to 5 mins by luminescence spectrophotometry
[7] = target: T2, Cyclic nucleotide specific phosphodiesterase (Trypanosoma cruzi); experiment: Inhibition of Trypanosoma cruzi Y PDEC assessed as cAMP accumulation at 4.5 to 45 uM after 1 to 5 mins by luminescence spectrophotometry
[8] = Cytotoxicity against rat L6E9 myoblasts at >25 uM
[9] = Cytotoxicity against rat L6E9 myoblasts at >10 uM

Row | IC50 [2] [µM] | IC50 (Phosphodiesterase 4) [µM] | SMILES | IC50 (Trypanosoma cruzi) [µM] | Activity [1] | also measured
1 | 7 | – | C=CCn1c(=S)sc2c(Sc3nnc(-c4ccco4)o3)ncnc21 | 5.4 | Non-toxic | –
2 | > 10 | 2.3 | COc1ccc(C(=O)CCc2ccccc2)cc1OC1CCOC1 (stereo not drawn) | 5.6 | Non-toxic | –
3 | > 10 | 1.9 | COc1ccc(C(=O)CCC2CCCCC2)cc1OC1CCOC1 (stereo not drawn) | 6.1 | Non-toxic | –
4 | 5.3 | 1.1 | O=C(CCC1CCCCC1)c1ccc(OC(F)F)c(OC2CCOC2)c1 (stereo not drawn) | 5.8 | Non-toxic | –
5 | > 10 | 0.72 | CCCCC(=O)c1ccc(OC)c(OC2CCOCC2)c1 | 2.1 | Non-toxic | –
6 | 5.6 | 24 | CCCC(=O)c1ccc(OC2CCOC2)c(OC)c1 (stereo not drawn) | 3.7 | Non-toxic | –
7 | 2.5 | 0.667 | O=C(CC1CCCCC1)c1ccc(OC(F)F)c(OC2CCOC2)c1 (stereo not drawn) | 4.4 | Non-toxic | –
8 | 2.4 | – | O=S(=O)(Cc1noc(-c2ccc(Cl)cc2)n1)c1ccccn1 | – | Non-toxic | Activity [3]: Toxic
9 | 3.2 | 0.022 | CC(C)CC(=O)c1ccc(OC(F)F)c(OC2CCCC2)c1 | 3.6 | Non-toxic | –
10 | 3.2 | 0.626 | O=C(CCCc1ccccc1)c1ccc(OC(F)F)c(OC2CCOC2)c1 (stereo not drawn) | 3.1 | Non-toxic | –
11 | 10 | – | O=C(NCc1csc(-c2cccs2)n1)C1=Cc2ccccc2OC1 [SCR 01311] | 25 | Non-toxic | –
12 | 6.3 | – | CC(C)(C)c1cc2ncnc(NNC(=O)c3cccs3)c2s1 [GK03671] | 4.8 | Non-toxic | –
13 | 4 | 60 | CCCC(=O)c1ccc(OC2CCOCC2)c(OC)c1 | 4 | Non-toxic | –
14 | > 10 | 100 | CCCC(O)c1ccc(OC)c(OC2CCOC2)c1 (stereo not drawn) | 471 | Non-toxic | –
15 | 4.6 | – | CCOC(=O)c1nc(C)nc(Sc2nnc(-c3ccccc3)[nH]2)c1C | 6.4 | Non-toxic | –
16 | 5.1 | 100 | CCCCC(=O)c1ccc(OC2CCOC2)c(OC)c1 (stereo not drawn) | 1.8 | Non-toxic | inhibition [4]: Active; inhibition [5]: Active; inhibition [6]: Active; inhibition [7]: Active
17 | > 10 | – | O=C(Nc1csc2ccccc12)NC1Cc2ccccc2C1 | – | Non-toxic | Activity [8]: Toxic
18 | > 10 | – | O=C(COc1ncnc2cc(Cl)ccc12)Nc1ccccc1Cl | > 10 | Non-toxic | –
19 | 5.5 | – | O=C1c2ccccc2S(=O)(=O)N1Cc1nc2ccccc2s1 | 3.3 | Non-toxic | –
20 | 10 | – | O=C1CC(Sc2ccc(Cl)cc2)C(=O)N1Cc1ccncc1 (stereo not drawn) | > 10 | Non-toxic | –
21 | 3.5 | 40 | CCCC(=O)c1ccc(OC(F)F)c(Oc2ccccn2)c1 | 10.3 | Non-toxic | –
22 | > 10 | – | Fc1ccccc1Nc1ncnc2c1nnn2Cc1ccccc1 | > 10 | Non-toxic | –
23 | 3.6 | – | CCOC(=O)Cc1csc(NC(=O)Nc2ccc(Cl)c(Cl)c2)n1 | – | Non-toxic | Activity [3]: Toxic
24 | > 10 | – | O=C(Nc1ccc(S(=O)(=O)N2CCCCC2)cc1)NC1CCCC1 | – | Non-toxic | Activity [3]: Toxic
25 | > 10 | – | COc1ccc(C=O)cc1OC1CCOC1 (stereo not drawn) | 122 | Non-toxic | –

Row | IC50 [2] [µM] | IC50 (Phosphodiesterase 4) [µM] | SMILES | IC50 (Trypanosoma cruzi) [µM] | Activity [1] | also measured
26 | 3.8 | – | O=S(=O)(Cc1ccco1)Cc1nc(-c2ccccc2)cs1 | 25 | Non-toxic | –
27 | > 10 | – | O=S(=O)(Cc1noc(-c2cccs2)n1)c1ccc(F)cc1 | > 10 | Non-toxic | –
28 | 3.5 | 71 | CCCCC(=O)c1ccc(OC2CCOCC2)c(OC)c1 | 5.2 | Non-toxic | inhibition [4]: Active; inhibition [5]: Active; inhibition [6]: Active; inhibition [7]: Active
29 | 4.9 | 2.6 | COc1ccc(C(=O)CC2CCCCC2)cc1OC1CCOC1 (stereo not drawn) | 1.7 | Non-toxic | –
30 | > 10 | – | O=Cc1ccc(OC(F)F)c(O)c1 | 11 | Non-toxic | –
31 | > 10 | – | O=C(SCc1ccco1)c1csc(C2COc3ccccc3O2)n1 (stereo not drawn) | 25 | Non-toxic | –
32 | > 10 | – | COC(OC)c1ccc(C#N)c(SCC(=O)c2ccc(Cl)cc2)n1 | > 10 | Non-toxic | –
33 | 2.2 | 0.082 | O=C(CCc1ccccc1)c1ccc(OC(F)F)c(OC(F)F)c1 | 2.3 | Non-toxic | –
34 | > 10 | – | O=C(Cn1nnc(N2CCCC2)n1)N/N=C/c1ccncc1 | – | Non-toxic | Activity [9]: Toxic
35 | 2.5 | 0.18 | O=C(CCc1ccccc1)c1ccc(OC(F)F)c(OC2CCOC2)c1 (stereo not drawn) | 3.1 | Non-toxic | –
36 | > 10 | 100 | CCCC(O)c1ccc(OC)c(OC2CCOCC2)c1 (stereo not drawn) | 10 | Non-toxic | –
37 | 4.8 | 0.35 | CCCC(=O)c1ccc(OC(F)F)c(OC2CCOCC2)c1 | 1.6 | Non-toxic | inhibition [4]: Active; inhibition [5]: Active; inhibition [6]: Active; inhibition [7]: Active
38 | > 10 | – | O=S(=O)(Cc1noc(CSc2ccc(Cl)cc2)n1)c1ccccn1 | – | Non-toxic | Activity [9]: Toxic
39 | > 10 | – | CCOC(=O)c1csc(COc2ccc(C3SCCS3)cc2)n1 | – | Non-toxic | Activity [8]: Toxic
40 | 3.1 | 93 | CCCCC(=O)c1ccc(OC2CCN(C(=O)OC(C)(C)C)CC2)c(OC)c1 | 3.8 | Non-toxic | –
41 | 3.9 | 6 | CCCC(O)(C(=O)c1ccc(OC(F)F)c(Oc2ccccn2)c1)c1cnc2ccccc2c1 (stereo not drawn) | 3.8 | Non-toxic | –
42 | 4.5 | – | O=S(=O)(Cc1noc(-c2ccno2)n1)Cc1ccco1 | – | Non-toxic | Activity [3]: Toxic
43 | 3.3 | 6 | CCCC(c1ccc(Oc2ccccn2)c(OC)c1)c1cnc2ccccc2c1 (stereo not drawn) | 1.9 | Non-toxic | –
44 | 2.5 | 44 | O=C(CCCc1ccccc1)c1ccc(OC(F)F)c(OC(F)F)c1 | 7.7 | Non-toxic | –
45 | > 10 | – | O=C(CN1CCc2ccccc21)Nc1nnc(-c2cccs2)s1 | > 10 | Non-toxic | –
46 | > 10 | – | NNC(=O)c1csc(COc2ccc(C3SCCS3)cc2)n1 | > 10 | Non-toxic | –
47 | 5.4 | 5.2 | O=C(CC1CCCCC1)c1ccc(OC(F)F)c(OC(F)F)c1 | 5.7 | Non-toxic | –
48 | > 10 | 0.43 | CCCC(=O)c1ccc(OC)c(OC2CCOC2)c1 (stereo not drawn) | 68 | Non-toxic | –
49 | 4.3 | – | CSc1noc(-c2ccc(S(=O)(=O)NCc3ccccc3)s2)c1C#N | – | Non-toxic | Activity [8]: Toxic
